Columns and labels:
Conditions in all cases: exposure time: 72 h
E13 [1] = patient-derived glioblastoma stem cells of classical subtype; test: phenotypic distance (Euclidean, principal components) from DMSO controls (arbitrary units); higher = stronger morphological change
E28 [2] = patient-derived glioblastoma stem cells of classical subtype; test: as above
FT3469 [3] = normal neural stem cell line; test: as above
E57 [4] = patient-derived glioblastoma stem cells of mesenchymal subtype; test: as above
E31 [5] = patient-derived glioblastoma stem cells of proneural subtype; test: as above
E21 [6] = patient-derived glioblastoma stem cells of mesenchymal subtype; test: as above
E34 [7] = patient-derived glioblastoma stem cells of proneural subtype; test: as above
E13 [8] = test: surviving fraction (nuclei count normalised to DMSO); higher = more cells surviving (less toxic)
E28 [9] = test: as above
FT3469 [10] = test: as above
E57 [11] = test: as above
E31 [12] = test: as above
E21 [13] = test: as above
E34 [14] = test: as above
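Wherever phenotypic distance (Euclidean, principal components) from DMSO controls is given: cell Painting imaging in 384-well plates, CellProfiler features reduced to at least 20 principal components, Euclidean distance versus same-plate DMSO vehicle wells (0.1% v/v), median over six images per well.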
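Wherever surviving fraction (nuclei count normalised to DMSO) is given: nuclei counted by high-content imaging of Hoechst-stained cells in laminin-coated 384-well plates, relative to 0.1% DMSO vehicle wells, with staurosporine as cell-death control.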

CC(=O)[C@]1(O)Cc2c(O)c3c(c(O)c2[C@@H](O[C@H]2C[C@H](N)[C@H](O)[C@H](C)O2)C1)C(=O)c1ccccc1C3=O [Idarubicin]
phenotypic distance (E13 [1]; 4.1 nM): 7.02 | phenotypic distance (E13 [1]; 12.3 nM): 6.41 | phenotypic distance (E13 [1]; 37 nM): 6.27 | phenotypic distance (E13 [1]; 111.1 nM): 5.38 | phenotypic distance (E13 [1]; 333.3 nM): 6.31 | phenotypic distance (E13 [1]; 1000 nM): 6.11 | phenotypic distance (E13 [1]; 3000 nM): 6.59 | phenotypic distance (E28 [2]; 4.1 nM): 2.71 | phenotypic distance (E28 [2]; 12.3 nM): 3.28 | phenotypic distance (E28 [2]; 37 nM): 3.42 | phenotypic distance (E28 [2]; 111.1 nM): 2.57 | phenotypic distance (E28 [2]; 333.3 nM): 3.02 | phenotypic distance (E28 [2]; 1000 nM): 4.74 | phenotypic distance (E28 [2]; 3000 nM): 5.14 | phenotypic distance (FT3469 [3]; 4.1 nM): 1.93 | phenotypic distance (FT3469 [3]; 12.3 nM): 1.84 | phenotypic distance (FT3469 [3]; 37 nM): 1.77 | phenotypic distance (FT3469 [3]; 111.1 nM): 1.39 | phenotypic distance (FT3469 [3]; 333.3 nM): 2.3 | phenotypic distance (FT3469 [3]; 1000 nM): 3.94 | phenotypic distance (FT3469 [3]; 3000 nM): 5.56 | phenotypic distance (E57 [4]; 4.1 nM): 11.4 | phenotypic distance (E57 [4]; 12.3 nM): 9.36 | phenotypic distance (E57 [4]; 37 nM): 6.52 | phenotypic distance (E57 [4]; 111.1 nM): 6.05 | phenotypic distance (E57 [4]; 333.3 nM): 5.69 | phenotypic distance (E57 [4]; 1000 nM): 6.02 | phenotypic distance (E57 [4]; 3000 nM): 6.32 | phenotypic distance (E31 [5]; 4.1 nM): 2.69 | phenotypic distance (E31 [5]; 12.3 nM): 2.97 | phenotypic distance (E31 [5]; 37 nM): 3.12 | phenotypic distance (E31 [5]; 111.1 nM): 4.59 | phenotypic distance (E31 [5]; 333.3 nM): 4.15 | phenotypic distance (E31 [5]; 1000 nM): 5.28 | phenotypic distance (E31 [5]; 3000 nM): 4.78 | phenotypic distance (E21 [6]; 4.1 nM): 7.83 | phenotypic distance (E21 [6]; 12.3 nM): 6.13 | phenotypic distance (E21 [6]; 37 nM): 5.05 | phenotypic distance (E21 [6]; 111.1 nM): 5.05 | phenotypic distance (E21 [6]; 333.3 nM): 5.58 | phenotypic distance (E21 [6]; 1000 nM): 5.16 | phenotypic distance (E21 [6]; 3000 nM): 8.48 | phenotypic distance (E34 [7]; 4.1 nM): 4.82 | phenotypic distance (E34 [7]; 12.3 nM): 4.66 | phenotypic distance (E34 [7]; 37 nM): 2.72 | phenotypic distance (E34 [7]; 111.1 nM): 2.83 | phenotypic distance (E34 [7]; 333.3 nM): 2.83 | phenotypic distance (E34 [7]; 1000 nM): 5.05 | phenotypic distance (E34 [7]; 3000 nM): 4 | surviving fraction (E13 [8]; 4.1 nM): 0.402 | surviving fraction (E13 [8]; 12.3 nM): 0.404 | surviving fraction (E13 [8]; 37 nM): 0.255 | surviving fraction (E13 [8]; 111.1 nM): 0.25 | surviving fraction (E13 [8]; 333.3 nM): 0.179 | surviving fraction (E13 [8]; 1000 nM): 0.0911 | surviving fraction (E13 [8]; 3000 nM): 0.0243 | surviving fraction (E28 [9]; 4.1 nM): 0.386 | surviving fraction (E28 [9]; 12.3 nM): 0.41 | surviving fraction (E28 [9]; 37 nM): 0.313 | surviving fraction (E28 [9]; 111.1 nM): 0.304 | surviving fraction (E28 [9]; 333.3 nM): 0.271 | surviving fraction (E28 [9]; 1000 nM): 0.18 | surviving fraction (E28 [9]; 3000 nM): 0.241 | surviving fraction (FT3469 [10]; 4.1 nM): 0.654 | surviving fraction (FT3469 [10]; 12.3 nM): 0.716 | surviving fraction (FT3469 [10]; 37 nM): 0.663 | surviving fraction (FT3469 [10]; 111.1 nM): 0.592 | surviving fraction (FT3469 [10]; 333.3 nM): 0.495 | surviving fraction (FT3469 [10]; 1000 nM): 0.439 | surviving fraction (FT3469 [10]; 3000 nM): 0.0825 | surviving fraction (E57 [11]; 4.1 nM): 0.197 | surviving fraction (E57 [11]; 12.3 nM): 0.205 | surviving fraction (E57 [11]; 37 nM): 0.146 | surviving fraction (E57 [11]; 111.1 nM): 0.166 | surviving fraction (E57 [11]; 333.3 nM): 0.14 | surviving fraction (E57 [11]; 1000 nM): 0.124 | surviving fraction (E57 [11]; 3000 nM): 0.0591 | surviving fraction (E31 [12]; 4.1 nM): 0.259 | surviving fraction (E31 [12]; 12.3 nM): 0.226 | surviving fraction (E31 [12]; 37 nM): 0.179 | surviving fraction (E31 [12]; 111.1 nM): 0.149 | surviving fraction (E31 [12]; 333.3 nM): 0.139 | surviving fraction (E31 [12]; 1000 nM): 0.114 | surviving fraction (E31 [12]; 3000 nM): 0.072 | surviving fraction (E21 [13]; 4.1 nM): 0.371 | surviving fraction (E21 [13]; 12.3 nM): 0.371 | surviving fraction (E21 [13]; 37 nM): 0.165 | surviving fraction (E21 [13]; 111.1 nM): 0.193 | surviving fraction (E21 [13]; 333.3 nM): 0.167 | surviving fraction (E21 [13]; 1000 nM): 0.164 | surviving fraction (E21 [13]; 3000 nM): 0.0457 | surviving fraction (E34 [14]; 4.1 nM): 0.611 | surviving fraction (E34 [14]; 12.3 nM): 0.511 | surviving fraction (E34 [14]; 37 nM): 0.54 | surviving fraction (E34 [14]; 111.1 nM): 0.538 | surviving fraction (E34 [14]; 333.3 nM): 0.479 | surviving fraction (E34 [14]; 1000 nM): 0.448 | surviving fraction (E34 [14]; 3000 nM): 0.15

Source: the supplement of paper PMC13207355
